Assay results as given in US20250197831A1, “LACTASE SOLUTION” (GODO SHUSEI CO., LTD., priority 2021, published 2025).
Counter-ions that a name gives are not always drawn.

Experiments:
[1] = Filter permeability test of the lactase solution (slope −a of flux vs permeate); assay type: physicochemical; conditions: for Slope (−a) Before Shaking: immediately after preparation; for Slope (−a) After Shaking: shaken at 20° C., 30 mm, 100 spm, 1 hour
Procedure: The detailed conditions in this example of the filter permeability test will be described in detail below.
The following operation was performed in an environment of 5 to 15° C. • 1. A measuring apparatus, a lactase solution sample, and distilled water were cooled to the test environment temperature. • 2. The lactase solution sample was diluted with distilled water or concentrated by ultrafiltration to adjust the lactase activity to 16,000 to 17,500 U/g and mixed well. • 3. In the test, one in which a 25 nun stainless steel filter holder (manufactured by PALL Corporation, product number 1209 (effective membrane area: 3.7 cm^2)) is connected to a stainless steel holder with a 47 mm tank (Advantec Toyo Kaisha, Ltd., product name “KST-47”) was used as an apparatus. A sample permeating portion in the filter holder is configured to include an O-ring, a membrane, a support screen, and an underdrain disc from the measurement sample inlet side (in the test of the present invention, the filter of the stainless steel holder with the tank and the parts of the filter bolding portion (the support screen and the support thereof) were not attached). As the membrane, DURAPORE (product name) (pore diameter: 0.22 μm, φ25 mm, made of hydrophilic PVDF) manufactured by Merck Millipore was used, and as the support screen, Type 316 stainless steel attached to the filter holder was used. In addition, in order to adjust the permeation rate, four circular label stickers (manufactured by A-One Co., Ltd., product name A-one color label 07010) having a diameter of 0.9 cm were stuck symmetrically to an upper portion of the support screen (measurement sample inlet side) (effective membrane area: 1.26 cm^2), and a membrane filter (pore diameter: 0.22 μm) was set. The membrane was rinsed with a 50% glycerin aqueous solution and attached to the stainless steel filter holder. • 4. The lactase solution sample (sample) diluted in 2. was charged into the stainless steel holder with the tank. • 5. A pressure of 0.2 MPa was applied to the stainless steel holder with the tank using an air compressor (manufactured by Yaezaki Kuatsu Co., Ltd., product name “KAPSEL-CON YC-3R” or “PC4-15HLM”), and the enzyme solution was pumped. The permeate was received in a container such as a beaker, the amount of the permeate was recorded every 10 seconds, and (1) the permeation amount (permeate (kg/m^2)) and (2) the permeation rate (flux (kg/min×m^2)) per square meter of the membrane were determined by the following method. In addition, the slope a of an approximate curve y=ax+b obtained when (1) is plotted on the x axis and (2) is plotted on the y axis was determined.
Permeate (kg/m^2)=weight (g) of product that permeated at point n/(membrane radius (mm))×membrane radius (mm)×circumference ratio)(m^2)×1000 (1)
Flux (kg/min×m^2)=(permeate at point n−permeate at point (n−1))/(permeation time (min) at point n−permeation time (min) at point (n−1)) (2) • *n indicates a measurement point. In order to record the permeation amount for every 10 seconds, for example, when the point n is for the permeation amount or permeate at the time of permeation for 10 seconds, the point (n−1) is for the permeation amount of permeate at the time of permeation for 0 seconds.
(§1) A predetermined amount of a given additive was added to GODO-YNL2LS, and the slope (−a) showing filter permeability and the residual activity of lactase activity were measured.
Each lactase solution was obtained by adding the additive shown in the table in a predetermined amount to 60,000 U/g GODO-YNL2LS. […] The lactase activity of each lactase solution after storage at 50° C. for 3 days was measured.

lactase = target: T1, lactase (Kluyveromyces lactis, UniProt P00723); assay: Residual activity of lactase activity after storage; assay type: physicochemical; conditions: for Residual Activity: storage at 50° C. for 3 days; for residual activity of lactase activity after storage (storage stability test): 0.005% and 0.01% in 60,000 U/g lactase solution, stored at 12° C. for 30 days
T1 construct: purchased GODO SHUSEI CO., LTD; GODO-YNL2LS
Procedure: In the following examples and the like, commercially available GODO-YNL2LS (manufactured by GODO SHUSEI CO., LTD.) was used as the lactase solution. […]
A diluted enzyme solution (0.5 mL) and 0.5 mL of a basic buffer (100 mM phosphate buffer (pH 6.5) containing 0.1 mM manganese chloride) are mixed, and the mixture is preheated at 37° C. for 3 minutes, and then, 1.0 mL of a 1.65 mM O-nitrophenyl-β-D-galactopyranoside (ONPG) aqueous solution is added thereto to cause a reaction at 37° C. for 1 minute. After 2.0 mL of a reaction stop solution (200 mM sodium carbonate) was added thereto, the absorbance at OD 420 nm was measured. One unit (U) is the enzyme activity that increases the OD […] by 1 from the substrate in 10 minutes.
as §1
Each lactase solution was obtained by adding the additive shown in the table in a predetermined amount to 60,000 U/g GODO-YNL2LS. Each lactase solution immediately after preparation was subjected to a filter permeability test and a lactase activity measurement by the above-mentioned methods. […]
In a container, 0.03 g of a saturated fatty acid and 1 mL of a 1 M aqueous sodium hydroxide solution were mixed, and 4 mL of distilled water was added thereto. The mixture was subjected to a saponification treatment in boiling water at 100° C. for 5 minutes, then left to cool to room temperature, and the reaction product was added to 294 g of a total amount of the lactase solution (GODO-YNL2LS) (addition amount: 0.01%). The filtrate obtained by filtering this was subjected to a filter permeability test and a residual activity of lactase activity.
In this example, 108 g of 99% glycerin was mixed with 0.03 g of the unsaturated fatty acid in a container. The mixture was added to 192 g of a total amount of the lactase solution (GODO-YNL2LS) (addition amount: 0.01%). The filtrate obtained by filtering this was subjected to a filter permeability test and a residual activity of lactase activity.

T1 sequence (P00723 whole entry): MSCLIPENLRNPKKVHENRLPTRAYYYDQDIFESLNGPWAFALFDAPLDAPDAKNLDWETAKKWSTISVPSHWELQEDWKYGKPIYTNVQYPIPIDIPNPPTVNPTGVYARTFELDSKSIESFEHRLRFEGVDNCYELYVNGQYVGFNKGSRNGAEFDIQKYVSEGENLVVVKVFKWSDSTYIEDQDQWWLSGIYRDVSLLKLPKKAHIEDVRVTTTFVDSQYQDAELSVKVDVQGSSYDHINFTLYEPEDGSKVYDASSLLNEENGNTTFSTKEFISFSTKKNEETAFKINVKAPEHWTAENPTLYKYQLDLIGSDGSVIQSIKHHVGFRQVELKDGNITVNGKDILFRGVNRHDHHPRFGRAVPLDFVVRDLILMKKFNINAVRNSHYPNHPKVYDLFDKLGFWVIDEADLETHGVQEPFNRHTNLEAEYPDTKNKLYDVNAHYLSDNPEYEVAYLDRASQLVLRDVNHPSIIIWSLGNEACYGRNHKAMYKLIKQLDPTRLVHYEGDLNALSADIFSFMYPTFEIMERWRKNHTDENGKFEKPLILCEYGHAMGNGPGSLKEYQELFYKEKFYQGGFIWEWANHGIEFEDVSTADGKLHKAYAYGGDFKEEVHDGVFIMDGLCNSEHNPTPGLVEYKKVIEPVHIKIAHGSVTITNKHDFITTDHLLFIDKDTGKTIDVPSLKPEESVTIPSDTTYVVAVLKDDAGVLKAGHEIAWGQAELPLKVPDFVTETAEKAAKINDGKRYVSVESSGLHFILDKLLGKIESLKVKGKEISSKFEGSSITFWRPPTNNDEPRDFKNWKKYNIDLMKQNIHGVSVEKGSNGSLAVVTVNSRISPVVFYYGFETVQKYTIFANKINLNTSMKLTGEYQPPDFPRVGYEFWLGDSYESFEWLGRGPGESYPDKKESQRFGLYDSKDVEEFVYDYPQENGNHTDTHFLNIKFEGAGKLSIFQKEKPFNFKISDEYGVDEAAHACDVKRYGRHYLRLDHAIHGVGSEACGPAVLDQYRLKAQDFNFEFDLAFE

Structure (SMILES)	Slope (−a) Before Shaking ([1]; additive 0.01 % in GODO-YNL2LS)	Slope (−a) After Shaking ([1]; additive 0.01 %)	Residual Activity (lactase; additive 0.01 %) [%]	further results
C[N+](C)(C)CC(=O)O [Betaine Hydrochloride]				Slope Before Shaking ([1]; Table 2, addition amount 0.1, immediately after preparation): 0.0291; Residual Activity (lactase; Table 2, addition amount 0.1): 66.5%
N[C@@H](CS)C(=O)O [Cysteine]				Residual Activity (lactase; Table 2, addition amount 0.02): 1.1%
CCCCC/C=C\C/C=C\CCCCCCCC(=O)O [Linoleic Acid]	0.0265	0.0253	61.1	residual activity of lactase activity after storage (storage stability test) (lactase): practical level
CCCCCCCCCC(=O)[O-].[Na+] [Na Decanoate]	0.0228			
CCCCCCCCCCCC(=O)[O-].[Na+] [Na Laurate]	0.0176	0.0590		
CCCCCCCCCCCCCC(=O)[O-].[Na+] [Na Myristate]	0.0147		70.7	
CCCCCCCC/C=C\CCCCCCCC(=O)[O-].[Na+] [Na Oleate]			71.4	Slope (−a) Before Shaking ([1]; additive 0.005 % in GODO-YNL2LS): 0.0243; Slope (−a) After Shaking ([1]; additive 0.005 %): 0.0216; Slope (−a) Before Shaking ([1]; additive 0.1 % in GODO-YNL2LS): 0.0542; Slope (−a) After Shaking ([1]; additive 0.1 %): 0.0405; Residual Activity (lactase; additive 0.005 %): 64.3%
CCCCCCCCCCCCCCCC(=O)[O-].[Na+] [Na Palmitate]	0.0200	deteriorated	61.5	
CCCCCCCCCCCCCCCCCC(=O)[O-].[Na+] [Na Stearate]	0.0273	deteriorated	61.9	
CCCCCCCC/C=C\CCCCCCCC(=O)O [Oleic Acid]	0.0272	0.0407	72.0	residual activity of lactase activity after storage (storage stability test) (lactase): practical level
N[C@@H](CCC(=O)N[C@@H](CS)C(=O)NCC(=O)O)C(=O)O [Reduced Glutathione]				Residual Activity (lactase; Table 2, addition amount 0.02): 19.9%
